Assay results as given in patent publication US20120121591A1 (priority 2009, published 2012).

The compounds below were run on IL-2 secretion from T cells in human whole blood. Conditions: read-out: WB (IL-2) IC50 (nM, Avg).
Assay type: cell-based

First: CC[C@H](C)[C@@H]1NC(=O)[C@@H](NC(=O)[C@H](CO)NC(=O)[C@@H](N)CCCNC(=N)N)CSSC[C@@H](C(=O)O)NC(=O)[C@H]([C@@H](C)O)NC(=O)CNC(=O)[C@@H]2CSSC[C@@H]3NC(=O)[C@H](CCC(N)=O)NC(=O)[C@H](Cc4ccccc4)NC(=O)[C@H](C)NC(=O)[C@H]([C@@H](C)O)NC(=O)[C@H](CSSC[C@H](NC(=O)[C@H](Cc4ccccc4)NC(=O)[C@H](CO)NC(=O)[C@H](CC(C)C)NC(=O)[C@H](CCCNC(=N)N)NC(=O)[C@H](Cc4ccc(O)cc4)NC(=O)[C@H](CCCCN)NC(=O)[C@H](CCSC)NC(=O)[C@H](CO)NC(=O)[C@H](Cc4c[nH]cn4)NC(=O)[C@H](CCCCN)NC3=O)C(=O)N[C@@H](CCCNC(=N)N)C(=O)N[C@@H](CCCCN)C(=O)N[C@@H]([C@@H](C)O)C(=O)N2)NC(=O)[C@H](CCCNC(=N)N)NC(=O)[C@H](CO)NC(=O)[C@H](Cc2cccc3ccccc23)NC(=O)[C@@H]2CCCN2C(=O)[C@H]([C@@H](C)CC)NC(=O)[C@H]([C@@H](C)O)NC(=O)[C@H](CC(=O)O)NC1=O [[1-Nal9]ShK]
Second: CC[C@H](C)[C@@H]1NC(=O)[C@@H](NC(=O)[C@H](CO)NC(=O)[C@@H](N)CCCNC(=N)N)CSSC[C@@H](C(=O)O)NC(=O)[C@H]([C@@H](C)O)NC(=O)[C@H](CCC(=O)O)NC(=O)[C@@H]2CSSC[C@@H]3NC(=O)[C@H](CCC(N)=O)NC(=O)[C@H](Cc4ccccc4)NC(=O)[C@H](C)NC(=O)[C@H]([C@@H](C)O)NC(=O)[C@H](CSSC[C@H](NC(=O)[C@H](Cc4ccccc4)NC(=O)[C@H](CO)NC(=O)[C@H](CC(C)C)NC(=O)[C@H](CCCNC(=N)N)NC(=O)[C@H](Cc4ccc(O)cc4)NC(=O)[C@H](CCCCN)NC(=O)[C@H](CCSC)NC(=O)[C@H](CO)NC(=O)[C@H](Cc4c[nH]cn4)NC(=O)[C@H](CCCCN)NC3=O)C(=O)N[C@@H](CCCNC(=N)N)C(=O)N[C@@H](CCCCN)C(=O)N[C@@H]([C@@H](C)O)C(=O)N2)NC(=O)[C@H](CCCNC(=N)N)NC(=O)[C@H](CO)NC(=O)[C@H](CCCCN)NC(=O)[C@@H]2CCCN2C(=O)[C@H]([C@@H](C)CC)NC(=O)[C@H]([C@@H](C)O)NC(=O)[C@H](CC(=O)O)NC1=O [[Glu33]ShK]
The IC50 of the first is 6.8-fold higher: 0.367 nM for the first, 0.054 nM for the second.

What follows are compounds tested on IFN-g secretion from T cells in human whole blood. Conditions: read-out: WB (IFNg) IC5- (nM, Avg).
Assay type: cell-based

Compared with `CC[C@H](C)[C@@H]1NC(=O)[C@@H](NC(=O)[C@H](CO)NC(=O)[C@@H](N)CCCNC(=N)N)CSSC[C@@H](C(=O)O)NC(=O)[C@H]([C@@H](C)O)NC(=O)CNC(=O)[C@@H]2CSSC[C@@H]3NC(=O)[C@H](CCC(N)=O)NC(=O)[C@H](Cc4ccccc4)NC(=O)[C@H](C)NC(=O)[C@H]([C@@H](C)O)NC(=O)[C@H](CSSC[C@H](NC(=O)[C@H](Cc4ccccc4)NC(=O)[C@H](CO)NC(=O)[C@H](CC(C)C)NC(=O)[C@H](CCCNC(=N)N)NC(=O)[C@H](Cc4ccc(O)cc4)NC(=O)[C@H](CCCCN)NC(=O)[C@H](CCSC)NC(=O)[C@H](CO)NC(=O)[C@H](CCC(=O)O)NC(=O)[C@H](CCCCN)NC3=O)C(=O)N[C@@H](CCCNC(=N)N)C(=O)N[C@@H](CCCCN)C(=O)N[C@@H]([C@@H](C)O)C(=O)N2)NC(=O)[C@H](CCCNC(=N)N)NC(=O)[C@H](CO)NC(=O)[C@H](CCCCN)NC(=O)[C@@H]2CCCN2C(=O)[C@H]([C@@H](C)CC)NC(=O)[C@H]([C@@H](C)O)NC(=O)[C@H](CC(=O)O)NC1=O` [[Glu19]ShK], `CC[C@H](C)[C@@H]1NC(=O)[C@@H](NC(=O)[C@H](CO)NC(=O)[C@@H](N)CCCNC(=N)N)CSSC[C@@H](C(=O)O)NC(=O)[C@H]([C@@H](C)O)NC(=O)CNC(=O)[C@@H]2CSSC[C@@H]3NC(=O)[C@H](CCC(N)=O)NC(=O)[C@H](Cc4ccccc4)NC(=O)[C@H](C)NC(=O)[C@H]([C@@H](C)O)NC(=O)[C@H](CSSC[C@H](NC(=O)[C@H](Cc4ccccc4)NC(=O)[C@H](CO)NC(=O)[C@H](CC(C)C)NC(=O)[C@H](CCCNC(=N)N)NC(=O)[C@H](CCC(=O)O)NC(=O)[C@H](CCCCN)NC(=O)[C@H](CCSC)NC(=O)[C@H](CO)NC(=O)[C@H](Cc4c[nH]cn4)NC(=O)[C@H](CCCCN)NC3=O)C(=O)N[C@@H](CCCNC(=N)N)C(=O)N[C@@H](CCCCN)C(=O)N[C@@H]([C@@H](C)O)C(=O)N2)NC(=O)[C@H](CCCNC(=N)N)NC(=O)[C@H](CO)NC(=O)[C@H](CCCCN)NC(=O)[C@@H]2CCCN2C(=O)[C@H]([C@@H](C)CC)NC(=O)[C@H]([C@@H](C)O)NC(=O)[C@H](CC(=O)O)NC1=O` [[Glu23]ShK] is 470-fold higher in IC50: 0.215 nM for the first, 100 nM for the second.

Going from `CC[C@H](C)[C@@H]1NC(=O)[C@@H](NC(=O)[C@H](CO)NC(=O)[C@@H](N)CCCNC(=N)N)CSSC[C@@H](C(=O)O)NC(=O)[C@H]([C@@H](C)O)NC(=O)CNC(=O)[C@@H]2CSSC[C@@H]3NC(=O)[C@H](CCC(N)=O)NC(=O)[C@H](Cc4ccccc4)NC(=O)[C@H](C)NC(=O)[C@H]([C@@H](C)O)NC(=O)[C@H](CSSC[C@H](NC(=O)[C@H](Cc4ccccc4)NC(=O)[C@H](CO)NC(=O)[C@H](CC(C)C)NC(=O)[C@H](CCCNC(=N)N)NC(=O)[C@H](Cc4ccc(O)cc4)NC(=O)[C@H](CCC(=O)O)NC(=O)[C@H](CCSC)NC(=O)[C@H](CO)NC(=O)[C@H](Cc4c[nH]cn4)NC(=O)[C@H](CCCCN)NC3=O)C(=O)N[C@@H](CCCNC(=N)N)C(=O)N[C@@H](CCCCN)C(=O)N[C@@H]([C@@H](C)O)C(=O)N2)NC(=O)[C@H](CCCNC(=N)N)NC(=O)[C@H](CO)NC(=O)[C@H](CCCCN)NC(=O)[C@@H]2CCCN2C(=O)[C@H]([C@@H](C)CC)NC(=O)[C@H]([C@@H](C)O)NC(=O)[C@H](CC(=O)O)NC1=O` [[Glu22]ShK] to `CC[C@H](C)[C@@H]1NC(=O)[C@@H](NC(=O)[C@H](CO)NC(=O)[C@@H](N)CCCNC(=N)N)CSSC[C@@H](C(=O)O)NC(=O)[C@H]([C@@H](C)O)NC(=O)CNC(=O)[C@@H]2CSSC[C@@H]3NC(=O)[C@H](CCC(N)=O)NC(=O)[C@H](Cc4ccccc4)NC(=O)[C@H](C)NC(=O)[C@H]([C@@H](C)O)NC(=O)[C@H](CSSC[C@H](NC(=O)[C@H](Cc4ccccc4)NC(=O)[C@H](CO)NC(=O)[C@H](CC(C)C)NC(=O)[C@H](CCC(=O)O)NC(=O)[C@H](Cc4ccc(O)cc4)NC(=O)[C@H](CCCCN)NC(=O)[C@H](CCSC)NC(=O)[C@H](CO)NC(=O)[C@H](Cc4c[nH]cn4)NC(=O)[C@H](CCCCN)NC3=O)C(=O)N[C@@H](CCCNC(=N)N)C(=O)N[C@@H](CCCCN)C(=O)N[C@@H]([C@@H](C)O)C(=O)N2)NC(=O)[C@H](CCCNC(=N)N)NC(=O)[C@H](CO)NC(=O)[C@H](CCCCN)NC(=O)[C@@H]2CCCN2C(=O)[C@H]([C@@H](C)CC)NC(=O)[C@H]([C@@H](C)O)NC(=O)[C@H](CC(=O)O)NC1=O` [[Glu24]ShK], the IC50 falls from 100 nM to 4.07 nM (25-fold).

Same assay, conditions: read-out: WB (IFNg) IC50 (nM, Avg)

`CC[C@H](C)[C@@H]1NC(=O)[C@@H](NC(=O)[C@H](CO)NC(=O)[C@@H](N)CCCNC(=N)N)CSSC[C@@H](C(=O)O)NC(=O)[C@H]([C@@H](C)O)NC(=O)[C@H](Cc2cccc3ccccc23)NC(=O)[C@@H]2CSSC[C@@H]3NC(=O)[C@H](CCC(N)=O)NC(=O)[C@H](Cc4ccccc4)NC(=O)[C@H](C)NC(=O)[C@H]([C@@H](C)O)NC(=O)[C@H](CSSC[C@H](NC(=O)[C@H](Cc4ccccc4)NC(=O)[C@H](CO)NC(=O)[C@H](CC(C)C)NC(=O)[C@H](CCCNC(=N)N)NC(=O)[C@H](Cc4ccc(O)cc4)NC(=O)[C@H](CCCCN)NC(=O)[C@H](CCSC)NC(=O)[C@H](CO)NC(=O)[C@H](Cc4c[nH]cn4)NC(=O)[C@H](CCCCN)NC3=O)C(=O)N[C@@H](CCCNC(=N)N)C(=O)N[C@@H](CCCCN)C(=O)N[C@@H]([C@@H](C)O)C(=O)N2)NC(=O)[C@H](CCCNC(=N)N)NC(=O)[C@H](CO)NC(=O)[C@H](CCCCN)NC(=O)[C@@H]2CCCN2C(=O)[C@H]([C@@H](C)CC)NC(=O)[C@H]([C@@H](C)O)NC(=O)[C@H](CC(=O)O)NC1=O` [[1-Nal33]ShK] and `CC[C@H](C)[C@@H]1NC(=O)[C@@H](NC(=O)[C@H](CO)NC(=O)[C@@H](N)CCCNC(=N)N)CSSC[C@@H](C(=O)O)NC(=O)[C@H]([C@@H](C)O)NC(=O)CNC(=O)[C@@H]2CSSC[C@@H]3NC(=O)[C@H](CCC(N)=O)NC(=O)[C@H](Cc4ccccc4)NC(=O)[C@H](C)NC(=O)[C@H]([C@@H](C)O)NC(=O)[C@H](CSSC[C@H](NC(=O)[C@H](Cc4ccccc4)NC(=O)[C@H](CO)NC(=O)[C@H](CC(C)C)NC(=O)[C@H](CCCNC(=N)N)NC(=O)[C@H](Cc4ccc(O)cc4)NC(=O)[C@H](CCCCN)NC(=O)[C@H](CCSC)NC(=O)[C@H](CO)NC(=O)[C@H](Cc4c[nH]cn4)NC(=O)[C@H](CCCCN)NC3=O)C(=O)N[C@@H](CCCNC(=N)N)C(=O)N[C@@H](CCCCN)C(=O)N[C@@H]([C@@H](C)O)C(=O)N2)NC(=O)[C@H](CCCNC(=N)N)NC(=O)[C@H](CO)NC(=O)[C@H](CCCCN)NC(=O)[C@H](CCCCN)NC(=O)[C@H]([C@@H](C)CC)NC(=O)[C@H]([C@@H](C)O)NC(=O)[C@H](CC(=O)O)NC1=O` [[Lys8]ShK] are within 1.5-fold of each other in IC50: 1.43 nM for the first, 0.974 nM for the second.

Going from `CC[C@H](C)[C@@H]1NC(=O)[C@@H](NC(=O)[C@H](CO)NC(=O)[C@@H](N)CCCNC(=N)N)CSSC[C@@H](C(=O)O)NC(=O)[C@H]([C@@H](C)O)NC(=O)[C@H](CCCCN)NC(=O)[C@@H]2CSSC[C@@H]3NC(=O)[C@H](CCC(N)=O)NC(=O)[C@H](Cc4ccccc4)NC(=O)[C@H](C)NC(=O)[C@H]([C@@H](C)O)NC(=O)[C@H](CSSC[C@H](NC(=O)[C@H](Cc4ccccc4)NC(=O)[C@H](CO)NC(=O)[C@H](CC(C)C)NC(=O)[C@H](CCCNC(=N)N)NC(=O)[C@H](Cc4ccc(O)cc4)NC(=O)[C@H](CCCCN)NC(=O)[C@H](CCSC)NC(=O)[C@H](CO)NC(=O)[C@H](Cc4c[nH]cn4)NC(=O)[C@H](CCCCN)NC3=O)C(=O)N[C@@H](CCCNC(=N)N)C(=O)N[C@@H](CCCCN)C(=O)N[C@@H]([C@@H](C)O)C(=O)N2)NC(=O)[C@H](CCCNC(=N)N)NC(=O)[C@H](CO)NC(=O)[C@H](CCCCN)NC(=O)[C@@H]2CCCN2C(=O)[C@H]([C@@H](C)CC)NC(=O)[C@H]([C@@H](C)O)NC(=O)[C@H](CC(=O)O)NC1=O` [[Lys33]ShK] to “[1-Nal14]ShK (RSCIDTIPKSRCTXFQCKHSMKYRLSFCRKTCGTC; non-natural residues)”, the IC50 falls from 0.317 nM to 0.11 nM (2.9-fold). The second is the more potent here.
